{"source": "patent US20120328569A1", "about": "“INHIBITORS OF HEPATITIS C VIRUS NS5B POLYMERASE” (priority 2010, published 2012)"}
{"system": "HCV genotype 1b replicon", "assay": "HCV replicon assay, cell ELISA with antibody to replicon-encoded NS3/4A (genotype 1b replicon)", "assay_type": "cell-based, hepatitis C virus", "settings": "Hepatitis C virus, 96 h, read-out: Replicon 1b IC50 (nM), HCV genotype 1b replicon cells, 96 hours incubation, NS3/4A ELISA readout", "protocol": "The HCV NS5B inhibitory activity of the present compounds may be tested using assays known in the art. The HCV NS5B polymerase inhibitors described herein have activities in a genotype 1b replicon assay as described in the Examples. The assay is performed by incubating a replicon harboring cell-line in the presence of inhibitor for a set period of time and measuring the effect of the inhibitor on HCV replicon replication either directly by quantifying replicon RNA level, or indirectly by measuring enzymatic activity of a co-encoded reporter enzyme such as luciferase or β-lactamase. By performing a series of such measurements at different inhibitor concentrations, the effective inhibitory concentration of the inhibitor (EC50 or EC90) is determined. See Jan M. Vrolijk et al., A replicons-based bioassay for the measurement of interferons in patients with chronic hepatitis C, 110 J. VIROLOGICAL METHODS 201 (2003). Such assays may also be run in an automated format for high through-put screening. See Paul Zuck et al., A cell-based β-lactamase reporter gene assay for the identification of inhibitors of hepatitis C virus replication, 334 ANALYTICAL BIOCHEMISTRY 344 (2004).\nMeasurement of inhibition by compounds was performed using the HCV replicon system. Several different replicons encoding different HCV genotypes or mutations were used. In addition, potency measurements were made using different formats of the replicon assay, including different ways of measurements and different plating formats. See Jan M. Vrolijk et al., A replicons-based bioassay for the measurement of interferons in patients with chronic hepatitis C, 110 J. VIROLOGICAL METHODS 201 (2003); Steven S. Carroll et al., Inhibition of Hepatitis C Virus RNA Replication by 2′-Modified Nucleoside Analogs, 278(14) J. BIOLOGICAL CHEMISTRY 11979 (2003). However, the underlying principles are common to all of these determinations, and are outlined below.\nStable neomycin phosphotransferase encoding replicons-harboring cell lines were used, so all cell lines were maintained under G418 selection prior to the assay. Potency was determined using a cell ELISA assay with an antibody to the replicons encoded NS3/4a protease. See Caterina Trozzi et al., In Vitro Selection and Characterization of Hepatitis C Virus Serine Protease Variants Resistant to an Active-Site Peptide Inhibitor, 77(6) J. Virol. 3669 (2003). To initiate an assay, replicon cells were plated in the presence of a dilution series of test compound in the absence of G418. Typically, the assays were performed in a 96-well plate formate for manual operation, or a 384-well plate format for automated assay. Replicon cells and compound were incubated for 96 hours. At the end of the assay, cells were washed free of media and compound, and the cells were then lysed. RNA was quantified indirectly through detection of replicon-encoded NS3/4A protein levels, through an ELISA-based assay with an antibody specific for NS3/4A. IC50 determinations were calculated as a percentage of a DMSO control by fitting the data to a four-parameter fit function and the data obtained is provided in the table below.", "units": {"IC50": "nM"}}
{"smiles": "CNC(=O)c1c(-c2ccc(F)cc2)oc2cc(N(C)S(C)(=O)=O)c(-c3ccccc3OC)cc12", "note": "[Example 79, 2-(4-fluorophenyl)-5-(2-methoxyphenyl)-N-methyl-6-[methyl (methylsulfonyl)amino]-1-benzofuran-3-carboxamide]", "IC50": 320}
{"smiles": "CNC(=O)c1c(-c2ccc(F)cc2)oc2cc(N(C)S(C)(=O)=O)c(-c3ccccc3C)cc12", "note": "[Example 80, 2-(4-fluorophenyl)-N-methyl-6-[methyl (methylsulfonyl)amino]-5-(2-methylphenyl)-1-benzofuran-3-carboxamide]", "IC50": 241}
{"smiles": "CNC(=O)c1c(-c2ccc(F)cc2)oc2cc(N(C)S(C)(=O)=O)c(-c3cccc(C)c3)cc12", "note": "[Example 81, 2-(4-fluorophenyl)-N-methyl-6-[methyl (methylsulfonyl)amino]-5-(3-methylphenyl)-1-benzofuran-3-carboxamide]", "IC50": 117}
{"smiles": "CNC(=O)c1c(-c2ccc(F)cc2)oc2cc(N(C)S(C)(=O)=O)c(-c3ccc(C)cc3)cc12", "note": "[Example 82, 2-(4-fluorophenyl)-N-methyl-6-[methyl (methylsulfonyl)amino]-5-(4-methylphenyl)-1-benzofuran-3-carboxamide]", "IC50": 53}
{"smiles": "CNC(=O)c1c(-c2ccc(F)cc2)oc2cc(N(C)S(C)(=O)=O)c(-c3ccccc3N(C)S(C)(=O)=O)cc12", "note": "[Example 83, 2-(4-fluorophenyl)-N-methyl-6-[methyl (methylsulfonyl)amino]-5-{2-[methyl (methylsulfonyl)amino]phenyl}-1-benzofuran-3-carboxamide]", "IC50": 232}
{"smiles": "CNC(=O)c1c(-c2ccc(F)cc2)oc2cc(N(C)S(C)(=O)=O)c(-c3cccc(C#N)c3)cc12", "note": "[Example 84, 5-(3-cyanophenyl)-2-(4-fluorophenyl)-N-methyl-6-[methyl (methylsulfonyl)amino]-1-benzofuran-3-carboxamide]", "IC50": 107}
{"smiles": "CNC(=O)c1c(-c2ccc(F)cc2)oc2cc(N(C)S(C)(=O)=O)c(-c3ccc(C#N)cc3)cc12", "note": "[Example 85, 5-(4-cyanophenyl)-2-(4-fluorophenyl)-N-methyl-6-[methyl (methylsulfonyl)amino]-1-benzofuran-3-carboxamide]", "IC50": 43}
{"smiles": "CNC(=O)c1c(-c2ccc(F)cc2)oc2cc(N(C)S(C)(=O)=O)c(-c3cccc(F)c3)cc12", "note": "[Example 86, 5-(3-fluorophenyl)-2-(4-fluorophenyl)-N-methyl-6-[methyl (methylsulfonyl)amino]-1-benzofuran-3-carboxamide]", "IC50": 28}
{"smiles": "CNC(=O)c1c(-c2ccc(F)cc2)oc2cc(N(C)S(C)(=O)=O)c(-c3ccc(F)cc3)cc12", "note": "[Example 87, 2,5-bis(4-fluorophenyl)-N-methyl-6-[methyl (methylsulfonyl)amino]-1-benzofuran-3-carboxamide]", "IC50": 39}
{"smiles": "CNC(=O)c1c(-c2ccc(F)cc2)oc2cc(N(C)S(C)(=O)=O)c(-c3cccc(OC)c3)cc12", "note": "[Example 88, 2-(4-fluorophenyl)-5-(3-methoxyphenyl)-N-methyl-6-[methyl (methylsulfonyl)amino]-1-benzofuran-3-carboxamide]", "IC50": 52}
{"smiles": "CNC(=O)c1c(-c2ccc(F)cc2)oc2cc(N(C)S(C)(=O)=O)c(-c3ccc(OC)cc3)cc12", "note": "[Example 89, 2-(4-fluorophenyl)-5-(4-methoxyphenyl)-N-methyl-6-[methyl (methylsulfonyl)amino]-1-benzofuran-3-carboxamide]", "IC50": 23}
{"smiles": "CONC(=O)c1c(-c2ccc(F)cc2)oc2cc(N(C)S(C)(=O)=O)c(-c3ccccc3F)cc12", "note": "[Example 90, 5(2-fluorophenyl)-2-(4-fluorophenyl)-N-methoxy-6-[methyl(methylsulfonyl)amino]-1-benzofuran-3-carboxamide]", "IC50": 197}
{"smiles": "CONC(=O)c1c(-c2ccc(F)cc2)oc2cc(N(C)S(C)(=O)=O)c(-c3ccccc3OC)cc12", "note": "[Example 91, 2-(4-fluorophenyl)-N-methoxy-5-(2-methoxyphenyl)-6-[methyl (methylsulfonyl)amino]-1-benzofuran-3-carboxamide]", "IC50": 342}
{"smiles": "CONC(=O)c1c(-c2ccc(F)cc2)oc2cc(N(C)S(C)(=O)=O)c(-c3cccc(C)c3)cc12", "note": "[Example 92, 2-(4-fluorophenyl)-N-methoxy-6-[methyl (methylsulfonyl)amino]-5-(3-methylphenyl)-1-benzofuran-3-carboxamide]", "IC50": 252}
{"smiles": "CONC(=O)c1c(-c2ccc(F)cc2)oc2cc(N(C)S(C)(=O)=O)c(-c3ccc(C)cc3)cc12", "note": "[Example 93, 2-(4-fluorophenyl)-N-methoxy-6-[methyl (methylsulfonyl)amino]-5-(4-methylphenyl)-1-benzofuran-3-carboxamide]", "IC50": 54}
{"smiles": "CONC(=O)c1c(-c2ccc(F)cc2)oc2cc(N(C)S(C)(=O)=O)c(-c3cccc(C#N)c3)cc12", "note": "[Example 94, 5-(3-cyanophenyl)-2-(4-fluorophenyl)-N-methoxy-6-[methyl (methylsulfonyl)amino]-1-benzofuran-3-carboxamide]", "IC50": 450}
{"smiles": "CONC(=O)c1c(-c2ccc(F)cc2)oc2cc(N(C)S(C)(=O)=O)c(-c3cccc(F)c3)cc12", "note": "[Example 95, 5-(3-fluorophenyl)-2-(4-fluorophenyl)-N-methoxy-6-[methyl (methylsulfonyl)amino]-1-benzofuran-3-carboxamide]", "IC50": 130}
{"smiles": "CONC(=O)c1c(-c2ccc(F)cc2)oc2cc(N(C)S(C)(=O)=O)c(-c3ccc(F)cc3)cc12", "note": "[Example 96, 2,5-bis(4-fluorophenyl)-N-methoxy-6-[methyl (methylsulfonyl)amino]-1-benzofuran-3-carboxamide]", "IC50": 1230}
{"smiles": "CONC(=O)c1c(-c2ccc(F)cc2)oc2cc(N(C)S(C)(=O)=O)c(-c3cccc(OC)c3)cc12", "note": "[Example 97, 2-(4-fluorophenyl)-N-methoxy-5-(3-methoxyphenyl)-6-[methyl (methylsulfonyl)amino]-1-benzofuran-3-carboxamide]", "IC50": 126}
{"smiles": "CONC(=O)c1c(-c2ccc(F)cc2)oc2cc(N(C)S(C)(=O)=O)c(-c3ccc(OC)cc3)cc12", "note": "[Example 98, 2-(4-fluorophenyl)-N-methoxy-5-(4-methoxyphenyl)-6-[methyl (methylsulfonyl)amino]-1-benzofuran-3-carboxamide]", "IC50": 72}
{"smiles": "CONC(=O)c1cccc(-c2cc3c(C(=O)NOC)c(-c4ccc(F)cc4)oc3cc2N(C)S(C)(=O)=O)c1", "note": "[Example 99, 2-(4-fluorophenyl)-N-methoxy-5-[3-(methoxycarbamoyl)phenyl]-6-[methyl(methylsulfonyl)amino]-1-benzofuran-3-carboxamide]", "IC50": 623}
{"smiles": "CNC(=O)c1cccc(-c2cc3c(C(=O)NC)c(-c4ccc(F)cc4)oc3cc2N(C)S(C)(=O)=O)c1", "note": "[Example 100, 2-(4-fluorophenyl)-N-methyl-5-[3-(methylcarbamoyl)phenyl]-6-[methyl(methylsulfonyl)amino]-1-benzofuran-3-carboxamide]", "IC50": 45}
{"smiles": "CNC(=O)c1c(-c2ccc(F)cc2)oc2cc(N(C)S(C)(=O)=O)c(-c3cccc(CN)c3)cc12", "note": "[Example 101, 5-[3-(aminomethyl)phenyl]-2-(4-fluorophenyl)-N-methyl-6-[methyl(methylsulfonyl)amino]-1-benzofuran-3-carboxamide]", "IC50": 505}
{"smiles": "CNC(=O)c1c(-c2ccc(F)cc2)oc2cc(N(C)S(C)(=O)=O)c(-c3cccc(CNS(C)(=O)=O)c3)cc12", "note": "[Example 102, 2-(4-fluorophenyl)-N-methyl-6-[methyl(methylsulfonyl)amino]-5-(3-{[(methylsulfonyl)amino]methyl}phenyl)-1-benzofuran-3-carboxamide]", "IC50": 7}
{"smiles": "CNC(=O)c1c(-c2ccc(F)cc2)oc2cc(N(C)S(C)(=O)=O)c(-c3cccc(CNS(=O)(=O)c4ccccc4)c3)cc12", "note": "[Example 103, 2-(4-fluorophenyl)-N-methyl-6-[methyl(methylsulfonyl)amino]-5-(3-{[(phenylsulfonyl)amino]methyl}phenyl)-1-benzofuran-3-carboxamide]", "IC50": "< 8"}
{"smiles": "CNC(=O)c1c(-c2ccc(F)cc2)oc2cc(N(C)S(C)(=O)=O)c(-c3ccc(CNS(C)(=O)=O)cc3)cc12", "note": "[Example 104]", "IC50": 164}
